{"source": "patent US10905117B2", "about": "“Antimicrobial agent containing polyalkyleneimine derivative” (NIPPON SHOKUBAI CO., LTD, priority 2014, dated 2021)", "type_in_all_cases": "cell-based", "key": {"[1]": {"test_system": "Staphylococcus aureus (NBRC-12732)", "test": "Minimum growth inhibitory concentration (MIC)", "conditions": "0.1% by weight agent with 1% by weight NaOH, pH 12.5, stored 18 days at 55° C.", "experimental": "(§1) An aqueous solution containing the antimicrobial agent was serially diluted by two fold with a Mueller-Hinton medium to prepare dilution series of a medium containing the antimicrobial agent. After that, the medium containing the antimicrobial agent at each concentration was added, in an amount of 50 μl each, to a 96 well polystyrene plate. […] The prepared liquid containing microbial cells was diluted to 10×10^6 cells/mL or so in a Mueller-Hinton medium, and added in an amount of 50 μl to each of the dilution series prepared in the above. […] Presence or absence of the growth of the bacterial cells was determined with a naked eye by following an increase in turbidity. To an aqueous solution added with the polymer 1 which has been obtained in Preparation Example 1 and benzalkonium chloride at 0.1% by weight, various kinds of alkali modifying agent shown in Table 8 were mixed at 1% by weight to prepare an antimicrobial agent composition. The storage stability test was carried out for the antimicrobial agent compositions for 18 days at 55° C. […] Meanwhile, MIC values were described as concentration of the antimicrobial agent."}, "[2]": {"test_system": "Escherichia coli (NBRC-3972)", "test": "Minimum growth inhibitory concentration (MIC)", "conditions": "0.1% by weight agent with 1% by weight NaOH, pH 12.5, stored 18 days at 55° C.", "experimental": "as §1"}, "[3]": {"test_system": "Escherichia coli (NBRC-3972) and/or Staphylococcus aureus (NBRC-12732)", "test": "MIC in the presence of an anionic surfactant", "conditions": "in the presence of linear alkylbenzene sulfate 80 ppm and polyoxyalkylenealkyl ether sulfate 80 ppm", "experimental": "An aqueous solution containing the antimicrobial agent was serially diluted by two fold with a Mueller-Hinton medium to prepare dilution series of a medium containing the antimicrobial agent. After that, the medium containing the antimicrobial agent at each concentration was added, in an amount of 50 μl each, to a 96 well polystyrene plate. Next, colonies of Escherichia coli (NBRC-3972) and/or Staphylococcus aureus (NBRC-12732) which have been grown for 18 hours in a Mueller-Hinton agar medium were suspended in a Butterfield's buffer solution to prepare a liquid containing microbial cells of 10×10^8 cells/mL or so. The prepared liquid containing microbial cells was diluted to 10×10^6 cells/mL or so in a Mueller-Hinton medium, and added in an amount of 50 μl to each of the dilution series prepared in the above. […] Presence or absence of the growth of the bacterial cells was determined with a naked eye by following an increase in turbidity.\nAs for the anionic surfactant, linear alkylbenzene sulfate was used at 80 ppm and polyoxyalkylenealkyl ether sulfate was used at 80 ppm."}}, "data": [{"substance": "Benzalkonium chloride", "values": [{"measurement": "MIC Staphylococcus aureus after storage stability test", "setting": "[1]", "value": 250, "unit": "ppm"}, {"measurement": "MIC Escherichia coli after storage stability test", "setting": "[2]", "value": 250, "unit": "ppm"}, {"measurement": "MIC", "setting": "[3]", "value": 625, "unit": "ppm"}]}]}
